Active and inactive are the calls of the source. How the calls were made is not given here.
The compounds below were run on S. cerevisiae SKN7-toxicity growth rescue, plate reader (assay: SKN7 mediated toxicity in Saccharomyces cerevisiae, growth rescue counterscreen, dose confirmation (AID 624258);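 further: growth read after three days of incubation at 30 °C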).
Compound `C[C@]12CCC3C(CC[C@H]4C[C@@H](O)CC[C@]34C)C1CC[C@@H]2OC(=O)[C@H](N)CCCCN` (some centres undefined) has an AC40 of 11 µM. `Clc1ccc(OCc2nc(-c3ccncc3)no2)c(Br)c1` was tested, and the AC40 was 0.95 µM. `CCc1ccc(NC(=O)CSc2ccc(-c3ccccn3)nn2)cc1` was tested, and the AC40 was 0.968 µM. `O=S(=O)(CCSc1ccccn1)c1nc2ccccc2s1` showed an AC40 of 6.53 µM. In the case of `S=C(NCCCc1ccccc1)Nc1ccc(Br)cc1`, the AC40 is reported as 4.26 µM. Compound `Cc1nc2c(nc1C)C(=O)c1ccccc1C2=O` has an AC40 of 13 µM. Compound `Cc1cccc2sc(NNC(=O)c3ccc(S(=O)(=O)N4CC(C)CC(C)C4)cc3)nc12` (centres undefined) has an AC40 of 0.736 µM. `C(=N\NC1=Nc2cccc3cccc1c23)/c1ccccn1` was tested, and the AC40 was 5.47 µM. `CCn1c(=O)oc2cc(NC(=O)CCl)ccc21` showed an AC40 of 18.2 µM. `O=c1nc(N/N=C/c2ccccn2)cn[nH]1` gave an AC40 of 4.69 µM. `COc1ccc(CNc2ncnc3sccc23)cc1` was tested, and the AC40 was 14.6 µM. In the case of `COc1ccc(CSCC(=O)Nc2ccc(S(=O)(=O)N3CCCCCC3)cc2)cc1`, the AC40 is reported as 6.93 µM. With `COc1cccc(/C=N/Nc2ncnc(Cl)c2N)c1O` the AC40 was 3.72 µM. `S=C1SCN(Cc2cccnc2)CN1Cc1cccnc1` gave an AC40 of 1.01 µM. For `CCCCCCCN1N=C(C)C(C(=O)c2ccccc2)C1=O` (centres undefined), the AC40 was 0.764 µM. In the case of `CCCCC(=O)NC(c1ccc(N(C)C)cc1)c1ccc2cccnc2c1O` (centres undefined), the AC40 is reported as 0.754 µM. `Nc1[nH]c(=O)ncc1F` showed an AC40 of 1.83 µM. `O=C1CC(O)(C(F)(F)F)Oc2c1ccc1ccccc21` (centres undefined) was tested, and the AC40 was 0.814 µM. In the case of `CC(C)(C)c1cc(-c2nc(N)nc(N)n2)c(O)c(C(C)(C)C)c1`, the AC40 is reported as 1.92 µM. `O=S(=O)(c1cc(C(F)(F)F)ccc1Cl)N1CCN(c2ncnc3ccccc23)CC1` gave an AC40 of 17.1 µM. Compound `CSC(=S)N/N=C/c1ccccc1` has an AC40 of 3.19 µM. `Cc1nn(CCC(N)=S)c2nc(-c3cccs3)cc(C(F)(F)F)c12` gave an AC40 of 14.1 µM. `COc1cccc(-n2nc(C#N)c(Cl)cc2=O)c1` gave an AC40 of 2.08 µM. With `N#C/C(=C\Nc1ccccc1O)c1nc2ccccc2o1` the AC40 was 1.12 µM. For `O=C(NNC(=O)c1cc(Cl)ccc1O)c1cccc(S(=O)(=O)N2CCOCC2)c1`, the AC40 was 3.31 µM. With `O=C1/C(=C/c2cccs2)SC(=S)N1NS(=O)(=O)c1ccccc1` the AC40 was 3.71 µM. With `O=C(Oc1cc2oc(=O)cc(-c3ccccc3)c2cc1Cl)C1CCCCC1` the AC40 was 8.04 µM. `Oc1cc(Nc2ccccc2)cc2cccnc12` showed an AC40 of 3.81 µM. Compound `O=S(=O)(NCC1COc2ccccc2O1)c1ccc2ccccc2c1` (centres undefined) has an AC40 of 8.68 µM. `Cc1nc2ccc(NC(=O)COc3cccc(F)c3)cc2s1` was tested, and the AC40 was 1.43 µM. In the case of `Cc1ccc(-c2cc(-c3ccc(C)cc3)[n+](-c3ccccc3)c(-c3ccc(C)cc3)c2)cc1`, the AC40 is reported as 4.13 µM. Compound `COc1cccc(CNC(=O)CSc2ccc(-c3ccccn3)nn2)c1` has an AC40 of 16.4 µM. `Cc1ccc(-c2nc3ccc(Cl)cc3c(=O)n2O)cc1` was tested, and the AC40 was 0.914 µM. `Cc1cc(C)c(OCC(=O)Nc2nc(-c3ccccn3)cs2)c(C)c1` showed an AC40 of 0.562 µM. `COc1ccc(C(=O)c2c(C(F)(F)F)oc3c2C(=O)c2ccccc2C3=O)cc1OC` showed an AC40 of 14.3 µM. For `O=C(Oc1cccc(NC(=O)c2ccccc2Cl)c1)c1ccc([N+](=O)[O-])cc1`, the AC40 was 14.1 µM. Compound `CC1=CC(=O)C(C(C)C)=C/C1=N/OS(=O)(=O)c1ccccc1` has an AC40 of 0.11 µM. In the case of `c1ccc(Nc2cccc(Nc3ccccc3)c2)cc1`, the AC40 is reported as 0.766 µM. With `CC(C)(C)n1nc(-c2ccc(Cl)cc2)c2c(N)ncnc21` the AC40 was 12.6 µM. With `Cc1ccc(Sc2ccc([N+](=O)[O-])cc2[N+](=O)[O-])nc1` the AC40 was 10.1 µM. `O=C1C=C(Nc2ccccc2O)c2ccccc2C1=O` gave an AC40 of 12.6 µM. In the case of `COc1ccc(-c2sc3ccccc3c2C#Cc2cncn2C)cc1`, the AC40 is reported as 1.24 µM. `Cc1cc([N+](=O)[O-])cc(/C=N/n2c(C)nc3ccccc3c2=O)c1O` showed an AC40 of 4.24 µM. With `O=C1Nc2c(Cl)cc(Cl)cc2C1=O` the AC40 was > 19.5 µM (inactive). `C/C(=N\NC(=S)NC1CCCCC1)c1c(F)cccc1F` was tested, and the AC40 was 3.39 µM. `Cc1cccc(C)c1NS(=O)(=O)c1ccc(-c2cnc(C3CC3)o2)cc1` showed an AC40 of 7.85 µM. `CCc1ccccc1OCC(=O)Nc1nc(-c2cccnc2)cs1` gave an AC40 of 1.23 µM. `CCCCCCCCCCOC(=O)Cn1c(COc2ccccc2)[n+](C)c2ccccc21` showed an AC40 of 3.02 µM. `O=C(Nc1ccccc1N1CCOCC1)c1cc2c(s1)CCCCC2` showed an AC40 of 7.06 µM.
